Test results as given in article PMC4920673, “Nitroimidazole carboxamides as antiparasitic agents targeting Giardia lamblia, Entamoeba histolytica and Trichomonas vaginalis” (European Journal of Medicinal Chemistry, 2016).
Values after ≈ are worked out from the molar mass of the structure shown. Where two headings read alike, the source gives them in different places.

Columns and labels:
[1] = tested on: G. lamblia 713M3 (MtzR); assay: ATP-bioluminescence growth/survival EC50 assay, G. lamblia 713M3; format: cell-based, Giardia lamblia
Description: (§1) Compounds were screened for antiparasitic activity using an ATP-bioluminescence based assay for cell growth and survival, [24]. […] Viable cell numbers were determined in triplicate using the CellTiter-Glo Luminescent Cell Viability Assay.

[2] = Resazurin cytotoxicity assay, HEK293; format: cell-based, Human; conditions: human, 24 h
Summary of the method: (§2)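 Cells pre-cultured 24 h in DMEM/10% FBS at 37 °C, then exposed 24 h to compound dilution series (top 100 μM). Viability by 5 μM resazurin, 2 h, fluorescence 560/590 nm; 1% Triton X-100 as lysis control; CC50 from curve fitting.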

[3] = tested on: HEK293 cells; assay: Resazurin cytotoxicity assay, HEK293; format: cell-based, Human; conditions: for Selectivity index (CC50/EC50): HEK293 CC50 / G. lamblia WB EC50
Summary of the method: as §2

[4] = Resazurin cytotoxicity assay, HepG2; format: cell-based, Human; conditions: human, 24 h
Summary of the method: as §2

[5] = tested on: HepG2 cells; assay: Resazurin cytotoxicity assay, HepG2; format: cell-based, Human; conditions: for S.I (CC50/EC50), second value of a split cell: HepG2 CC50 / G. lamblia WB EC50
Summary of the method: as §2

[6] = tested on: C. difficile NAP1/027 (ATCC BAA-1803); assay: Broth microdilution MIC assay, C. difficile NAP1/027; format: cell-based, Clostridium difficile; conditions: strain NAP1/027; for MIC: Clostridioides difficile, ATCCBAA1803
Summary of the method: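 Strains grown anaerobically in BHIS at 37 °C overnight; compounds two-fold serially diluted (64 to 0.03 μg/mL) in pre-reduced medium under anaerobic atmosphere (5% H2, 10% CO2, 85% N2). Plates incubated 24 h at 37 °C; MIC taken as lowest concentration without visible growth, median of replicates reported.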

[7] = tested on: T. vaginalis F1623; assay: ATP-bioluminescence growth/survival EC50 assay, T. vaginalis; format: cell-based, Trichomonas vaginalis
Description: as §1

[8] = tested on: C. difficile 630 (ATCC BAA-1382); assay: Broth microdilution MIC assay, C. difficile 630; format: cell-based, Clostridium difficile; conditions: strain 630, MtzS, median of n = 4; for MIC: Clostridioides difficile, ATCCBAA1382, read-out: MIC C. difficile 630
Summary of the method: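 Compounds two-fold serially diluted against overnight anaerobic BHIS cultures of the strain, following CLSI methods modified in broth and inoculum for C. difficile. Plates incubated 24 h at 37 °C; MIC is the lowest concentration without visible growth, median reported with range.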

[9] = tested on: G. lamblia WB (MtzS); assay: ATP-bioluminescence growth/survival EC50 assay, G. lamblia WB; conditions: for S.I (CC50/EC50): average cytotoxicity against HEK293 and HepG2 / G. lamblia WB activity
Description: as §1

[10] = tested on: E. histolytica HM1:IMSS; assay: ATP-bioluminescence growth/survival EC50 assay, E. histolytica; format: cell-based, Entamoeba histolytica
Description: as §1

[11] = Metabolic stability in liver microsomes; format: in vitro ADME, human; conditions: 5 μM, human liver microsomes 1 mg/mL, NADPH
Description: Metabolic stability studies were performed with human liver microsomes (HMMC-PL, Lot# PL050B-B, Thermo Fisher Scientific USA) with test compound (5 μM) degradation monitored by LC/MS/MS analysis. Stock solutions (2.5 mM) of the test compounds were prepared in DMSO. […] The reaction was initiated by addition of NADPH solution (cofactor) in potassium phosphate buffer (final concentration 1 mM). Aliquots (180 μL) from the reaction mixture were withdrawn (t = 0, 10, 30, 60 and 120 min) and quenched by adding ice-cold stop solution (540 μL) comprising 0.5 μM carbutamide internal standard in acetonitrile: methanol: formic acid (1: 1: 0.001). Reaction samples were incubated at 4 °C for 30 min, centrifuged at 14,000 × g for 8 min and the clear supernatant was transferred to a vial for LC/MS/MS analysis. The percentage of compound metabolised at different times was calculated as a percentage of the levels at the start of incubation (t = 0 min sample). Matrix blank was also prepared as a control. […] LC/MS/MS parameters are detailed in the supplementary information (Supplementary Table 1).

[12] = Plasma protein binding by ultrafiltration; format: in vitro ADME; conditions: human, pooled human plasma (100%), 5 μM, 100% human plasma, 37 °C, 30 min, ultrafiltration; for fraction unbound at 0.5 h, 5 µM: read-out: Plasma protein binding (% bound) (converted)
Description: Plasma Protein Binding (PPB) was performed using an Ultrafiltration method, [28]. […] Samples were incubated at […] for 30 min, then centrifuged at 14,000 × g for 8 min, with the clear supernatant transferred to a vial for LC/MS/MS analysis. […] The fraction of unbound compound was calculated by determining the concentration of the filtered sample and the concentration of unfiltered sample. […] LC/MS/MS parameters are detailed in the supplementary information (Supplementary Table 1).

[13] = Giardia duodenalis, read-out: EC50 G. lamblia 713M3, MtzR strain 713M3, minimum n = 3
[14] = Giardia duodenalis, read-out: pEC50 ± SE G. lamblia 713M3, MtzR strain 713M3 (converted)
[15] = HepG2 cells, highest concentration 100 μM, n = 3, read-out: CC50 Hep G2
[16] = Trichomonas vaginalis, read-out: EC50 T. vaginalis F1623, MtzS, minimum n = 3
[17] = Trichomonas vaginalis, read-out: pEC50 ± SE T. vaginalis F1623, MtzS (converted)
[18] = Giardia duodenalis, read-out: EC50 G. lamblia WB, MtzS strain WB, minimum n = 3
[19] = Giardia duodenalis, read-out: pEC50 ± SE G. lamblia WB, MtzS strain WB (converted)
[20] = Entamoeba histolytica, read-out: EC50 E. histolytica HM1:IMSS
[21] = Entamoeba histolytica, read-out: pEC50 ± SE E. histolytica HM1:IMSS (converted)
[22] = HEK293 cells, highest concentration 100 μM, n = 3, read-out: CC50 HEK 293
[23] = MtzR strain 713M3, minimum n = 3, read-out: EC50 G. lamblia 713M3
[24] = MtzS, minimum n = 3, read-out: EC50 T. vaginalis F1623
[25] = read-out: EC50 G. lamblia WB, MtzS strain WB, minimum n = 3
[26] = MtzS, minimum n = 3, read-out: EC50 E. histolytica HM1:IMSS

Compound	EC50 [1, 13]	EC50 [1, 14]	CC50 at 24 h [4, 15]	MIC [6]	EC50 [7, 16]	EC50 [7, 17]	MIC [8]	EC50 [9, 18]	EC50 [9, 19]	EC50 [10, 20]	EC50 [10, 21]	CC50 at 24 h [2, 22]	S.I (CC50/EC50) [9]	CC50 [3]	CC50 [5]	MIC C. difficile 630 [8]	pEC50 ± SE G. lamblia WB ([9]; MtzS strain WB)	EC50 [9, 25]	pEC50 ± SE E. histolytica HM1:IMSS ([10]; MtzS)	EC50 [10, 26]	further results
O=C(NCc1ccc(OC(F)(F)F)cc1)c1ncc([N+](=O)[O-])[nH]1 [Compound 12b, 5-nitro-N-(4-(trifluoromethoxy)benzyl)-1H-imidazole-2-carboxamide]	2.5 µM	2.51 µM	93 µM	8 to 16 µg/mL (≈ 24.2 to 48.5 µM)	2.2 µM	2.24 µM	16 µg/mL (≈ 48.5 µM)	0.2 µM	0.245 µM	4.5 µM	4.47 µM	–	–	–	–	–	–	–	–	–	CC50 at 24 h ([2]; highest concentration 100 μM, n = 3, read-out: CC50 HEK 293): > 100 µM; Selectivity index (CC50/EC50) [3]: > 500; CC50 at 24 h ([4]; HepG2 cells, read-out: pCC50 ± SE Hep G2 (converted)): 93.3 µM; S.I (CC50/EC50), second value of a split cell [5]: 465
O=C(c1ncc([N+](=O)[O-])[nH]1)N1CCOCC1 [Compound 12h, Morpholino(5-nitro-1H-imidazol-2-yl)methanone]	> 20 µM	> 20 µM	> 100 µM	2 µg/mL (≈ 8.84 µM)	2.9 µM	2.88 µM	2 µg/mL (≈ 8.84 µM)	8.8 µM	8.71 µM	5.1 µM	5.13 µM	> 100 µM	>11	–	–	–	–	–	–	–	Microsome stability (% remaining at 2 h) [11]: 100 % remaining; fraction unbound at 0.5 h, 5 µM [12]: 0.22
Cn1c([N+](=O)[O-])cnc1C(=O)NCc1ccc(F)cc1 [Compound 8a, N-(4-fluorobenzyl)-1-methyl-5-nitro-1H-imidazole-2-carboxamide]	13 µM	12.9 µM	> 100 µM	> 64 µg/mL	5.2 µM	5.25 µM	> 64 µg/mL	3.5 µM	3.47 µM	9.7 µM	9.77 µM	> 100 µM	>29	–	–	–	–	–	–	–	Microsome stability (% remaining at 2 h) [11]: 88 % remaining; fraction unbound at 30 min, 5 μM ([12]; read-out: Plasma protein binding (% bound)): ≤ 0.06; fraction unbound at 0.5 h, 5 µM [12]: 0.05
O=C(NO)c1nc([N+](=O)[O-])cn1Cc1ccc(OC(F)(F)F)cc1 [Compound 14d, N-hydroxy-4-nitro-1-(4-(trifluoromethoxy)benzyl)-1H-imidazole-2-carboxamide]	–	–	–	16 µg/mL (≈ 46.2 µM)	–	–	16 µg/mL (≈ 46.2 µM)	5.1 µM	5.13 µM	10 µM	10 µM	36 µM	–	–	–	–	–	–	–	–	CC50 at 24 h ([2]; HEK293 cells, read-out: pCC50 ± SE HEK293 (converted)): 36.3 µM; Selectivity index (CC50/EC50) [3]: 7; CC50 at 24 h ([4]; highest concentration 100 μM, n = 3, read-out: CC50 Hep G2): > 100 µM; S.I (CC50/EC50), second value of a split cell [5]: > 20
Cn1c([N+](=O)[O-])cnc1C(=O)NCc1ccc(OC(F)(F)F)cc1 [Compound 8b, 1-methyl-5-nitro-N-(4-(trifluoromethoxy)benzyl)-1H-imidazole-2-carboxamide]	–	–	–	–	–	–	–	–	–	–	–	–	>33	> 100 µM	> 100 µM	32 µg/mL (≈ 93 µM)	5.52 ± 0.03	3 µM	4.85 ± 0.02	14 µM	pEC50 ± SE G. lamblia 713M3 ([1]; MtzR strain 713M3): 5.06 ± 0.29; EC50 [1, 23]: 8.8 µM; pEC50 ± SE T. vaginalis F1623 ([7]; MtzS): 4.88 ± 0.01; EC50 [7, 24]: 13 µM
1-(cyclohexylmethyl)-4-nitro-1H-imidazole-2-carboxamide [Compound 13g]	–	–	–	–	–	–	–	–	–	–	–	–	>20	> 100 µM	> 100 µM	>64 µg/mL	5.30 ± 0.06	5 µM	< 4.3	> 50 µM	MIC C. difficile NAP1/027 [6]: >64 µg/mL
1-(cyclopropylmethyl)-4-nitro-1H-imidazole-2-carboxamide [Compound 13f]	–	–	–	–	–	–	–	–	–	–	–	–	–	> 100 µM	> 100 µM	>64 µg/mL	< 4.3	> 50 µM	< 4.3	> 50 µM	MIC C. difficile NAP1/027 [6]: >64 µg/mL
Cn1c([N+](=O)[O-])cnc1C(=O)NCc1cccc(OC(F)(F)F)c1 [Compound 8c, 1-methyl-5-nitro-N-(3-(trifluoromethoxy)benzyl)-1H-imidazole-2-carboxamide]	–	–	–	–	–	–	–	–	–	–	–	–	>32	> 100 µM	> 100 µM	32 to 64 µg/mL	5.51 ± 0.02	3.1 µM	4.77 ± 0.02	17 µM	pEC50 ± SE G. lamblia 713M3 ([1]; MtzR strain 713M3): 5.84 ± 0.69; EC50 [1, 23]: 1.5 µM; MIC C. difficile NAP1/027 [6]: 64 µg/mL (≈ 186 µM); pEC50 ± SE T. vaginalis F1623 ([7]; MtzS): 5.09 ± 0.09; EC50 [7, 24]: 8.1 µM
